The record followed here is publication PMC8722715 (Frontiers in Cell and Developmental Biology, 2021).

Assay [1] addresses T1, hNaV1.6 channel (Homo sapiens, UniProt Q9UQD0).
T1 construct: expressed in transfected cells
The assay is described as follows: Automated patch-clamp block of hNaV1.6 peak Na+ current in HEK-293 cells. As to conditions: for IC50: HEK-293 cells stably expressing hNaV1.6, SyncroPatch 384 PE whole-cell, holding -100 mV, 0 mV test pulse 50 ms every 5 s, room temperature 18-22°C, 0.3% BSA, steady state or end of 15-min application, mean, S.E.M. and n cells; for hNaV1.6 IC50 versus WT: ratio of analogue mean IC50 to HwTx-IV WT mean IC50 on hNaV1.6. The format is cell-based. As to the method:
(§1) CHO cells stably expressing the hNaV1.7 channel subtype were cultured in Dulbecco’s Modified Eagle’s Medium F-12 (DMEM/F12) supplemented with 10% fetal bovine serum, 2 mM glutamine, 200 μg/ml hygromycine B, 10 U/ml penicillin and 10 μg/ml streptomycin (Gibco, Grand Island, NY). HEK-293 cells stably expressing the hNaV1.6 channel subtype were cultured in Dulbecco’s Modified Eagle’s Medium (DMEM) supplemented with 10% fetal calf serum, 1 mM pyruvic acid, 4.5 g/L glucose, 2 mM glutamine, 800 μg/ml G418, 10 U/ml penicillin and 10 μg/ml streptomycin (Gibco, Grand Island, NY). All cell lines were incubated at 37°C in a 5% CO2 atmosphere. For electrophysiological recordings, cells were detached with trypsin, and floating single cells were diluted (∼300,000 cells/ml) in an extracellular solution containing (in mM): 140 NaCl, 4 KCl, 2 CaCl2, 1 MgCl2, 5 glucose and 10 HEPES (pH 7.4, osmolarity 298 mOsm), that was used throughout the experiments.
(§2) HwTx-IV analogues were investigated on CHO cells expressing hNav1.7 channel and HEK-293 cells expressing hNaV1.6 channel using the automated patch-clamp system from Nanion (SyncroPatch 384 PE; München, Germany). Chips with single-hole and high-resistance (∼6–7 MΩ) were used for both cell lines. Voltage pulses and whole-cell recordings were achieved using the PatchControl384 v1.5.2 software (Nanion) and the Biomek v1.0 interface (Beckman Coulter). Prior to recordings, dissociated cells were shaken at 200 RPM in a cell hotel reservoir at 10°C. After cell catching, sealing, whole-cell formation, liquid application, recording, and data acquisition were all performed sequentially and automatically. The intracellular solution contained (in mM): 110 CsF, 10 CsCl, 10 NaCl, 1 MgCl2, 1 CaCl2, 10 EGTA and 10 HEPES (pH 7.2, osmolarity 280 mOsm), and the extracellular solution was as described above. Whole-cell experiments were done at −100 mV holding potential and at room temperature (18–22°C), while currents triggered at either −10 or 0 mV test potential were sampled at 20 kHz. Stimulation frequency was set at 0.2 Hz. Each HwTx-IV analogue was prepared at various concentrations in the extracellular solution, itself supplemented with 0.3% of bovine serum albumin (BSA), also added in the control solution. The peptides were distributed in 384-well microplates according to the number of compounds to be tested (generally four), the concentration range defined from the IC50 of wild-type HwTx-IV, and the number of cells desired for each experimental condition. Compound solutions were diluted 3 times in the patch-clamp recording well by adding 30–60 μl external solution, to reach the final reported concentration and the test volume of 90 μl. For establishing dose-response curves, the compounds were tested at a test potential of either −10 or 0 mV for 50 ms with a pulse every 5 s. Percentages of current inhibition were measured at steady-state of blockage or at the end of a 15-min application time.
Background: The patch-clamp technique gives a direct electrical read-out from membranes.

The target in assay [2] is T2, hNaV1.7 channel (Homo sapiens, UniProt Q15858).
T2 construct: expressed in transfected cells
T2 sequence (Q15858 whole entry): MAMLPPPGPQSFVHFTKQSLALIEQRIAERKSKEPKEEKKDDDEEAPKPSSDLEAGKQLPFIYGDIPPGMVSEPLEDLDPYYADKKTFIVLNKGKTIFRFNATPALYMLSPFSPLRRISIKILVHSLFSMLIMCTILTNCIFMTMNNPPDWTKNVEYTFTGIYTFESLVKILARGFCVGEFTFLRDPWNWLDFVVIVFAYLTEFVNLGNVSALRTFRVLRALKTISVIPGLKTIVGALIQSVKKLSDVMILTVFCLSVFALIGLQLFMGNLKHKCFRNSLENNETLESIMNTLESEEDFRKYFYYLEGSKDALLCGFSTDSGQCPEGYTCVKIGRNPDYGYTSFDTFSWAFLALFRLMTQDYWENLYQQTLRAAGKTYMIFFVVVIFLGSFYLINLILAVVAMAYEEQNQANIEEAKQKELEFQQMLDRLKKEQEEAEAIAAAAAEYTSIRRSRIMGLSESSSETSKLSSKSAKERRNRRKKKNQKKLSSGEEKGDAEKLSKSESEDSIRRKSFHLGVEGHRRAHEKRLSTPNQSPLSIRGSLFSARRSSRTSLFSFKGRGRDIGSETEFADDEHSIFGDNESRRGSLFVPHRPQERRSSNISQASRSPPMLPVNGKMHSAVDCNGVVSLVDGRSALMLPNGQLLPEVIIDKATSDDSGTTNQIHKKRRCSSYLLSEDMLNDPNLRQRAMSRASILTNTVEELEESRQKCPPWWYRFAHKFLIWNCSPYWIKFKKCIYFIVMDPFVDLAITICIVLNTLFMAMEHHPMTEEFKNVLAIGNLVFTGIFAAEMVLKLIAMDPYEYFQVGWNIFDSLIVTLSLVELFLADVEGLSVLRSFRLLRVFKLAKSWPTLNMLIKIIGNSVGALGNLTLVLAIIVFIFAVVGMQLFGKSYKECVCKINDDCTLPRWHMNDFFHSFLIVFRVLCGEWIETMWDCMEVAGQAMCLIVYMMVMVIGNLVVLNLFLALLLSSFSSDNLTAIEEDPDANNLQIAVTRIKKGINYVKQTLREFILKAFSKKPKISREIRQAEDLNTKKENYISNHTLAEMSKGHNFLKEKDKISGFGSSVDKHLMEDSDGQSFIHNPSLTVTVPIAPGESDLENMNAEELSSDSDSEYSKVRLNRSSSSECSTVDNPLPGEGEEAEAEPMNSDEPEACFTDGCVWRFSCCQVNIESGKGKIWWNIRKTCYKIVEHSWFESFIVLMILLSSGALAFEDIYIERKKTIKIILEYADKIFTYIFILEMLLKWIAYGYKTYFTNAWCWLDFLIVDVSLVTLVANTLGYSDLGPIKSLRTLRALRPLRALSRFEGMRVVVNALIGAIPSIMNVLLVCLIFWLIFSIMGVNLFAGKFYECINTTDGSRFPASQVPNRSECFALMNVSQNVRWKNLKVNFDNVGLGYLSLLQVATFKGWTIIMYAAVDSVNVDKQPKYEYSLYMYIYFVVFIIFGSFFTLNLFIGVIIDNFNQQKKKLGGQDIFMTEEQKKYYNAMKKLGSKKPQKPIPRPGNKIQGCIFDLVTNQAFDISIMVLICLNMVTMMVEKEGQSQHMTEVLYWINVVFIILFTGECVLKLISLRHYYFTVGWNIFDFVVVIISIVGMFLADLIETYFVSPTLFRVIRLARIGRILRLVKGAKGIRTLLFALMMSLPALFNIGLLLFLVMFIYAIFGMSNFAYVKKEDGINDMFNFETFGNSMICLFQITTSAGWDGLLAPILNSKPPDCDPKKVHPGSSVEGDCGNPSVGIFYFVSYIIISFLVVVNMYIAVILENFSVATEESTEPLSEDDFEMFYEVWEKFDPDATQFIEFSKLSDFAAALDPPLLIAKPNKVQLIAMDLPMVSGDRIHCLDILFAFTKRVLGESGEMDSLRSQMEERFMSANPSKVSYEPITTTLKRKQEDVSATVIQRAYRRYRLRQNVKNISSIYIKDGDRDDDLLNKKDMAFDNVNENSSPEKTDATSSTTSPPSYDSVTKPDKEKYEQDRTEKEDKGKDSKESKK
As to the kind of experiment: Automated patch-clamp block of hNaV1.7 peak Na+ current in CHO cells. The settings on record: for IC50: CHO cells stably expressing hNaV1.7, SyncroPatch 384 PE whole-cell, holding -100 mV, -10 mV test pulse 50 ms every 5 s, room temperature 18-22°C, 0.3% BSA, steady state or end of 15-min application, mean, S.E.M. and n cells; for hNaV1.7 IC50 versus WT: ratio of analogue mean IC50 to HwTx-IV WT mean IC50 on hNaV1.7; for hNaV1.7/hNaV1.6 selectivity ratio: inverse ratio of the mean IC50 values on hNaV1.7 (CHO) and hNaV1.6 (HEK-293) of Table 1. Format: cell-based. As to the method: as §1
as §2, with “The peptides were distributed in 384-well microplates according to the number of compounds to be tested (generally four), the concentration range defined from the IC50 of wild-type HwTx-IV, and the number of cells desired for each experimental condition.” left out

T1 sequence (Q9UQD0 whole entry): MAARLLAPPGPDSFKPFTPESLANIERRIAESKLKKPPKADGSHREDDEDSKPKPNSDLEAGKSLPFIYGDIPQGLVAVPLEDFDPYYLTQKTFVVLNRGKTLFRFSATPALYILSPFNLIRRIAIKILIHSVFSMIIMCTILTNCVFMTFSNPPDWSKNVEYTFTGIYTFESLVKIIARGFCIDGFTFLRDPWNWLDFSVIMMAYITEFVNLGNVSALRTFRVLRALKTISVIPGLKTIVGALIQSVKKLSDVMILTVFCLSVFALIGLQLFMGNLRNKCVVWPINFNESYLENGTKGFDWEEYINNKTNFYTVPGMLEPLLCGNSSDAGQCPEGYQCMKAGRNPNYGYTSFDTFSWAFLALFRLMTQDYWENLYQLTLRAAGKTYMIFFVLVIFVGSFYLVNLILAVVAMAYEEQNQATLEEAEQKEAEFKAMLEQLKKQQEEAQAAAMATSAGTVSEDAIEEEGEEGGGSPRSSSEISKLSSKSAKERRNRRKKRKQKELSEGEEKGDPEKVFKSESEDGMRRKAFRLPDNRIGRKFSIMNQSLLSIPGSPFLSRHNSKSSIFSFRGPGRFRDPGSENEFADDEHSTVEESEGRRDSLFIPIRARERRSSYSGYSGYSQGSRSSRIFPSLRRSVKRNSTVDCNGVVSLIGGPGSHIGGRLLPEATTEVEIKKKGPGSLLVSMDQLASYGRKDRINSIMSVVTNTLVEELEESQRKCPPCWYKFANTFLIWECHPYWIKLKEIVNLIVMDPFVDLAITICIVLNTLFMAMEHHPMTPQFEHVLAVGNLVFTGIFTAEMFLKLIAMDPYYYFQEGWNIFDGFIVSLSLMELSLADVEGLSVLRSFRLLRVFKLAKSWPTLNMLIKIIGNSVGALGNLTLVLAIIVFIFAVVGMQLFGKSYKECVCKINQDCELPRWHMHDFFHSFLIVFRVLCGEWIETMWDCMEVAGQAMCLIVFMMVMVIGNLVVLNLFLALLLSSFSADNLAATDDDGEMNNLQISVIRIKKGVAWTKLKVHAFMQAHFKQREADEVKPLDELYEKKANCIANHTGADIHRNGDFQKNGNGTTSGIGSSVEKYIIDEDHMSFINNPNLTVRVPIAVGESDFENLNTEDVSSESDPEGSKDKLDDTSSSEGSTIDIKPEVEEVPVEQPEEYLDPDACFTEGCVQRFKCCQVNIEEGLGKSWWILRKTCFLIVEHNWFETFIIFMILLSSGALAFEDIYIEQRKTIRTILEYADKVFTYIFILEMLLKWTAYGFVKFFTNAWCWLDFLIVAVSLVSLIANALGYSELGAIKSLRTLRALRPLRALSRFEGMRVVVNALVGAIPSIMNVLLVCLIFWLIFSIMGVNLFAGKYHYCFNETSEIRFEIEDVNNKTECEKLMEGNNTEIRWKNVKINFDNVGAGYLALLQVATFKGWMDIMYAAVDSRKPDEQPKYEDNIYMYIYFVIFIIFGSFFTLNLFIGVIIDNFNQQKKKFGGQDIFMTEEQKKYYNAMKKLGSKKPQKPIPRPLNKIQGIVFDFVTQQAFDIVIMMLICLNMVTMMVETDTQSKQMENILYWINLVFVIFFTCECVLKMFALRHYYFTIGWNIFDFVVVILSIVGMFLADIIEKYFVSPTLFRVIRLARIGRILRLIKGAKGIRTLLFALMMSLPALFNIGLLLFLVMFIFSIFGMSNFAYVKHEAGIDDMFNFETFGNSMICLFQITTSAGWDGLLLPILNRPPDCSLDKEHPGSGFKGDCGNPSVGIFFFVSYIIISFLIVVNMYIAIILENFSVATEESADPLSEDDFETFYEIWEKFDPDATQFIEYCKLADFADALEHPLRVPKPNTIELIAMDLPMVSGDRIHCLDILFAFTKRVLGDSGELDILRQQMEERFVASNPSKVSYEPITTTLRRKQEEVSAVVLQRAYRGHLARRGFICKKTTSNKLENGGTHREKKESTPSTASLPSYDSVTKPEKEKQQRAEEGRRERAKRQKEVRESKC

For the compound `CC[C@H](C)[C@H](NC(=O)[C@H](CCC(N)=O)NC(=O)[C@H](Cc1ccc(O)cc1)NC(=O)[C@H](CCCCN)NC(=O)[C@@H]1CSSC[C@@H]2NC(=O)[C@H](CCC(N)=O)NC(=O)[C@H](CC(=O)O)NC(=O)[C@H](CC(N)=O)NC(=O)[C@H](CO)NC(=O)[C@@H]3CCCN3C(=O)[C@H](CC(N)=O)NC(=O)[C@@H]3CSSC[C@H](NC(=O)[C@H](C(C)C)NC(=O)[C@H](CC(C)C)NC(=O)[C@H](CCCCN)NC(=O)[C@H](CO)NC(=O)[C@H](CO)NC(=O)[C@H](C)NC(=O)[C@H](CSSC[C@H](NC(=O)CN)C(=O)N[C@@H](CC(C)C)C(=O)NCC(=O)N[C@@H]([C@@H](C)CC)C(=O)N[C@@H](Cc4ccccc4)C(=O)N[C@@H](CCCCN)C(=O)N[C@@H](C)C(=O)N3)NC2=O)C(=O)N[C@@H](CO)C(=O)N[C@@H](CCCNC(=N)N)C(=O)N[C@@H](CCCCN)C(=O)N[C@@H]([C@@H](C)O)C(=O)N[C@@H](CCCNC(=N)N)C(=O)N[C@@H](Cc2c[nH]c3ccccc23)C(=O)N1)C(N)=O` [HwTx-IV E^1G/E^4G/K^18A], in assay [1], the IC50 (in general, the concentration needed to halve the response being measured) was 4.9 nM and the “hNaV1.6 IC50 versus WT” value amounted to 0.02. For the same compound, in assay [2], the IC50 came to 0.8 nM and the “hNaV1.7 IC50 versus WT” value amounted to 0.08.
The corresponding values for `CC[C@H](C)[C@H](NC(=O)[C@H](CCC(N)=O)NC(=O)[C@H](Cc1ccc(O)cc1)NC(=O)[C@H](CCCCN)NC(=O)[C@@H]1CSSC[C@@H]2NC(=O)[C@H](CCC(N)=O)NC(=O)[C@H](CC(=O)O)NC(=O)[C@H](CC(N)=O)NC(=O)[C@H](CO)NC(=O)[C@@H]3CCCN3C(=O)[C@H](CC(N)=O)NC(=O)[C@@H]3CSSC[C@H](NC(=O)[C@H](C(C)C)NC(=O)[C@H](CC(C)C)NC(=O)[C@H](CCCCN)NC(=O)[C@H](CO)NC(=O)[C@H](CO)NC(=O)[C@H](CCCCN)NC(=O)[C@H](CSSC[C@H](NC(=O)[C@@H](N)CCC(=O)O)C(=O)N[C@@H](CC(C)C)C(=O)N[C@@H](CCC(=O)O)C(=O)N[C@@H]([C@@H](C)CC)C(=O)N[C@@H](Cc4ccccc4)C(=O)N[C@@H](CCCCN)C(=O)N[C@@H](C)C(=O)N3)NC2=O)C(=O)N[C@@H](CO)C(=O)N[C@@H](C)C(=O)N[C@@H](CCCCN)C(=O)N[C@@H]([C@@H](C)O)C(=O)N[C@@H](CCCNC(=N)N)C(=O)N[C@@H](Cc2c[nH]c3ccccc23)C(=O)N1)C(N)=O` [HwTx-IV R ^26A] are 614 nM, 2.71, 112 nM and 11.28.
Regarding `CC[C@H](C)[C@H](NC(=O)[C@H](CCC(N)=O)NC(=O)[C@H](Cc1ccc(O)cc1)NC(=O)[C@H](CCCCN)NC(=O)[C@@H]1CSSC[C@@H]2NC(=O)[C@H](CCC(N)=O)NC(=O)[C@H](CC(=O)O)NC(=O)[C@H](CC(N)=O)NC(=O)[C@H](CO)NC(=O)[C@@H]3CCCN3C(=O)[C@H](CC(N)=O)NC(=O)[C@@H]3CSSC[C@H](NC(=O)[C@H](C(C)C)NC(=O)[C@H](CC(C)C)NC(=O)[C@H](CCCCN)NC(=O)[C@H](CO)NC(=O)[C@H](CO)NC(=O)[C@H](CCCCN)NC(=O)[C@H](CSSC[C@H](NC(=O)CN)C(=O)N[C@@H](CC(C)C)C(=O)N[C@@H](CCC(=O)O)C(=O)N[C@@H]([C@@H](C)CC)C(=O)N[C@@H](Cc4ccccc4)C(=O)N[C@@H](CCCCN)C(=O)N[C@@H](C)C(=O)N3)NC2=O)C(=O)N[C@@H](CO)C(=O)N[C@@H](CCCNC(=N)N)C(=O)N[C@@H](CCCCN)C(=O)N[C@@H]([C@@H](C)O)C(=O)N[C@@H](CCCNC(=N)N)C(=O)N[C@@H](Cc2c[nH]c3ccccc23)C(=O)N1)C(N)=O` [HwTx-IV E^1G], the “hNaV1.6 IC50 versus WT” value in assay [1] is on record as 0.28; in assay [1] (listed as HwTx-IV E^4G), 0.03; in assay [1] (listed as HwTx-IV E^4K), 0.09; in assay [1] (listed as HwTx-IV E^4R), 0.05. The hNaV1.7/hNaV1.6 selectivity ratio result in assay [2] (listed as E^4K) is listed as “less than 2”; in assay [2] (listed as HwTx-IV E^4K), about 1. Moreover, the entries for the “hNaV1.7 IC50 versus WT” value in assay [2], in assay [2] (listed as HwTx-IV E^4G) and in assay [2] (listed as HwTx-IV E^4K) were 0.70, 0.16 and 1.43, respectively.
With `CC[C@H](C)[C@H](NC(=O)[C@H](CCC(N)=O)NC(=O)[C@H](Cc1ccc(O)cc1)NC(=O)[C@H](CCCCN)NC(=O)[C@@H]1CSSC[C@@H]2NC(=O)[C@H](CCC(N)=O)NC(=O)[C@H](CC(=O)O)NC(=O)[C@H](CC(N)=O)NC(=O)[C@H](CO)NC(=O)[C@@H]3CCCN3C(=O)[C@H](CC(N)=O)NC(=O)[C@@H]3CSSC[C@H](NC(=O)[C@H](C(C)C)NC(=O)[C@H](CC(C)C)NC(=O)[C@H](CCCCN)NC(=O)[C@H](CO)NC(=O)[C@H](CO)NC(=O)[C@H](CCCCN)NC(=O)[C@H](CSSC[C@H](NC(=O)[C@@H](N)CCC(=O)O)C(=O)N[C@@H](CC(C)C)C(=O)N[C@@H](CCC(=O)O)C(=O)N[C@@H]([C@@H](C)CC)C(=O)N[C@@H](Cc4ccccc4)C(=O)N[C@@H](CCCCN)C(=O)N[C@@H](C)C(=O)N3)NC2=O)C(=O)N[C@@H](CO)C(=O)N[C@@H](CCC(N)=O)C(=O)N[C@@H](CCCCN)C(=O)N[C@@H]([C@@H](C)O)C(=O)N[C@@H](CCCNC(=N)N)C(=O)N[C@@H](Cc2c[nH]c3ccccc23)C(=O)N1)C(N)=O` [HwTx-IV R ^26Q], in assay [1], the half-maximal inhibitory concentration (IC50) was over 1000 nM and the “hNaV1.6 IC50 versus WT” value is listed as over 4.4. Besides, in assay [2], the concentration for half-maximal inhibition (IC50) stood at 141 nM and the “hNaV1.7 IC50 versus WT” value stood at 14.28.
